Earlier results on 1 molecule are cited in patent US20160158245A1, “PHARMACEUTICAL FORMULATION CONTAINING THIENOTRIAZOLODIAZEPINE COMPOUNDS” (ONCOETHIX GmbH, priority 2013, published 2016).

Each structure is given as a SMILES string.

This data set concerns BRD4 and c-MYC. The settings on record: cited from earlier work.

In the case of `Cc1sc2c(c1C)C(c1ccc(Cl)cc1)=N[C@@H](CC(=O)OC(C)(C)C)c1nnc(C)n1-2` [JQ1], the “BRD4 and c-MYC down-regulation” value is “induce BRD4 down-regulation and subsequently c-MYC down-regulation”.
